Results as given in paper PMC6484129, “Structure–function analyses reveal that a glucuronoyl esterase from Teredinibacter turnerae interacts with carbohydrates and aromatic compounds” (The Journal of Biological Chemistry, 2019).
Read-outs that look alike come from different tables or passages of the source. Blank lines part the entries; values can stand above or below the molecule they belong to.

What was measured:
Experiment in all cases: inhibition of BnzGlcA hydrolysis, coupled K-URONIC assay
Assay type in all cases: biochemical
TtCE15A [1] = molecular target: T1, TtCE15A (Teredinibacter turnerae, UniProt C5BN23)
T1 construct: gene TERTU_0517
T1 sequence (C5BN23 entry or part of it): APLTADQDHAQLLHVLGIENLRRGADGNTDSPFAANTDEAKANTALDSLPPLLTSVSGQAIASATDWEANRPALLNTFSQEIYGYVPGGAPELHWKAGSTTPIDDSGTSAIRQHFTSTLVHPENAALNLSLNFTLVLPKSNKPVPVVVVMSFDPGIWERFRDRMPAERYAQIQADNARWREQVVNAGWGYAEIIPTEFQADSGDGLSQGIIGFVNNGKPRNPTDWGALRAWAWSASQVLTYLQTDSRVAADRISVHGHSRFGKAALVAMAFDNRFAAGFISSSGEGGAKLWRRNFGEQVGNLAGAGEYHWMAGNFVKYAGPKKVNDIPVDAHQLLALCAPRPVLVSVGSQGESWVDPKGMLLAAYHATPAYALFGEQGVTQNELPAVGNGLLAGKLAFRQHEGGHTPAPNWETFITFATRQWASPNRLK
Source text: (§1) inhibition of BnzGlcA hydrolysis, coupled K-URONIC assay on TtCE15A

TtCE15A [2] = molecular target: T2, TtCE15A (Teredinibacter turnerae, UniProt C5BN23, F174A)
T2 construct: gene TERTU_0517
T2 sequence (C5BN23 entry or part of it F174A): as the sequence (C5BN23 entry or part of it) above, with F152A counted along it
Source text: as §1

TtCE15A [3] = molecular target: T3, TtCE15A (Teredinibacter turnerae, UniProt C5BN23, F174D)
T3 construct: gene TERTU_0517
T3 sequence (C5BN23 entry or part of it F174D): as the sequence (C5BN23 entry or part of it) above, with F152D counted along it
Source text: as §1

IC50 (TtCE15A [1]; read-out: FA): 550 ± 45 µM | IC50 (TtCE15A [2]; read-out: FA): 84 ± 5 µM | IC50 (TtCE15A [3]; read-out: FA): 400 ± 40 µM
SMILES: COc1cc(/C=C/C(=O)O)ccc1O [FA, ferulic acid]

IC50 (TtCE15A [1]; read-out: pCoA): 830 ± 40 µM | IC50 (TtCE15A [2]; read-out: pCoA): 4840 ± 470 µM
SMILES: O=C(O)/C=C/c1ccc(O)cc1 [pCoA, p-coumaric acid]

IC50 (TtCE15A [1]; read-out: SA): 560 ± 30 µM | IC50 (TtCE15A [2]; read-out: SA): 190 ± 22 µM | IC50 (TtCE15A [3]; read-out: SA): 770 ± 64 µM
SMILES: COc1cc(/C=C/C(=O)O)cc(OC)c1O [SA, sinapic acid]

IC50 (TtCE15A [1]; 0.4 mM BnzGlcA, pH 7.5, <10% DMSO, read-out: XUXXR): 5510 ± 280 µM
SMILES: CO[C@@H]1C(C(=O)O)O[C@H](O[C@H]2[C@H](O[C@@H]3CO[C@@H](O[C@H](CO)[C@H](O)[C@@H](O)CO)[C@H](O)[C@H]3O)OC[C@@H](O[C@@H]3OC[C@@H](O)[C@H](O)[C@H]3O)[C@@H]2O)[C@H](O)[C@H]1O (stereo partly drawn) [XUXXR, 2^3-(4-O-methyl-D-glucuronyl)-α-D-xylotetraitol]
